Like-named read-outs stand apart in the source and are kept apart here.
Columns and labels:
[1] = target: T1, F508del/F508del CFTR (Homo sapiens, UniProt P13569, DEL508-508); experiment: Trans-Epithelial Current Clamp (TECC) assay using primary human bronchial epithelial cells; type: cell-based; conditions: for Emax (% Dual): maximum percent activity relative to positive control (co-corrector 0.15 μM + potentiator 0.45 μM = 100%); for EC50: primary hBE cells F508del/F508del, test corrector with co-corrector and potentiator, 18-24 hours, equivalent CFTR current
T1 construct: cells isolated from CF patients with the homozygous mutation; endogenous in cells; host or cells: primary human bronchial epithelial (hBE) cells from CF patients homozygous for F508del
T1 sequence (P13569 with tags, fused parts or gaps DEL508-508): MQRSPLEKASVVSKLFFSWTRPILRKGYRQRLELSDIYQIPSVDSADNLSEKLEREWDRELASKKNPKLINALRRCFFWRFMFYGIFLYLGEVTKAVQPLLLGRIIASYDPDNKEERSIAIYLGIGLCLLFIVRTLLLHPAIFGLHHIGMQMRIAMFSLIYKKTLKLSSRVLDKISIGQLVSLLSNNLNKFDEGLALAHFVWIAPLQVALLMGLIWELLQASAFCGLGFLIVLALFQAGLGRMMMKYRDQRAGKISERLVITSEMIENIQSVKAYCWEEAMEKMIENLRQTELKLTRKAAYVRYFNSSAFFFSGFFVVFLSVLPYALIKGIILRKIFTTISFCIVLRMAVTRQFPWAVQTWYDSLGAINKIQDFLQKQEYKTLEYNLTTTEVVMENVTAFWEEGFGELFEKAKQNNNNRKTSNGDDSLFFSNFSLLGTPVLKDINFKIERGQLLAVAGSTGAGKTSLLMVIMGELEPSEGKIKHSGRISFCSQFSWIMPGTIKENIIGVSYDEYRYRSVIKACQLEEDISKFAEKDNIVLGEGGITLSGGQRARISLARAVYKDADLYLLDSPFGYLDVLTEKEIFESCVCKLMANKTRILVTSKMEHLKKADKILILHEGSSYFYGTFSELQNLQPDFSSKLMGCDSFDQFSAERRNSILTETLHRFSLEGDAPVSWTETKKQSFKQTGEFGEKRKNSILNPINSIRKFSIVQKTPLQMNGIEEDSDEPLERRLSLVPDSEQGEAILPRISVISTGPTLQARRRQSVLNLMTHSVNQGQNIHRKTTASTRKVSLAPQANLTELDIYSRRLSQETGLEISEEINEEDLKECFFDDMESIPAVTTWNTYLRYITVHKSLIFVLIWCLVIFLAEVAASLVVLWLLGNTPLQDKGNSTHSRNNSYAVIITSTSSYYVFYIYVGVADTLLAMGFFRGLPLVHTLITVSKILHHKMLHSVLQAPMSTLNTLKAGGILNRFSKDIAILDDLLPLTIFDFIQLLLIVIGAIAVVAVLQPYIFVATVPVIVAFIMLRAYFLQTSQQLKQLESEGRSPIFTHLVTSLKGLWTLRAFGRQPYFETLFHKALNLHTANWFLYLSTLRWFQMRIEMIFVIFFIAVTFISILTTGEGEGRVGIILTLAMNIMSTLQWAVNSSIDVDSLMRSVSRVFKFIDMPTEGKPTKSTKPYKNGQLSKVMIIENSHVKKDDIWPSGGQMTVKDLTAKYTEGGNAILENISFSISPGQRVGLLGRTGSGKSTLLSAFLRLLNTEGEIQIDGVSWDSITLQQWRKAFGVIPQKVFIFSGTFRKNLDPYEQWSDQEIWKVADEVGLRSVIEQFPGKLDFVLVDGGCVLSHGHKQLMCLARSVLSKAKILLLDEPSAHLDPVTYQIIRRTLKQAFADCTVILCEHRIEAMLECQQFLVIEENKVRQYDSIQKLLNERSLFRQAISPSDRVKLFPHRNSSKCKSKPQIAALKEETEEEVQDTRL
Description: A cell-based assay was developed using the primary human bronchial epithelial cells (hBE cells) with F508del/F508del CFTR and other mutations.
Primary human bronchial epithelial (hBE) cells from CFTR patients with homozygous F508del/F508del mutation were expanded from 1×10^6 to 250×10^6 cells (Neuberger, T et al., 2011, Methods Mol Biol 741:39-54). For this purpose, cells isolated from CF patients with the homozygous mutation, procured from the CF center tissue procurement and cell culture core at the Marsico Lung Institute at UNC (Randell), the Cystic Fibrosis translational research center at McGill University (University), and Rosalind Franklin University Medical School (RFUMS) were seeded onto 24 well Corning (Cat #3378) filter plates that were coated with 3T3 conditioned media and grown at an air-liquid interface for 35 days using an Ultroser® G supplemented differentiation media. All the primary human bronchial epithelial cells were collected in accordance with institutional review board approval protocols. Apical surface mucus was removed 72 hours before the experiment by incubating the apical surface of the cells for 30 minutes with 3 mM dithiothreitol (DTT) prepared in Dulbecco's phosphate buffered saline (DPBS) with Ca^2+ and Mg^2+. This was followed with aspiration of the mucus from the apical surface along with DPBS. The apical surface was re-washed with phosphate buffered saline (PBS) incubated for 30 minutes followed with aspiration. These hBE cells were then incubated with the desired concentrations of the test C2 corrector compounds along with co-corrector, 4-[(2R,4R)-4-({[1-(2,2-difluoro-1,3-benzodioxol-5-yl)cyclopropyl]carbonyl}amino)-7-(difluoromethoxy)-3,4-dihydro-2H-chromen-2-yl]benzoic acid and potentiator, (5-{3-amino-5-[4-(trifluoromethoxy)benzene-1-sulfonyl]pyridin-2-yl}-1,3,4-oxadiazol-2-yl)methanol, for 18-24 hours at 37° C., 5% CO2. The desired concentrations of the correctors and potentiator compounds were prepared from the 10 mM stocks in differentiation media and were always applied on the basolateral side of the epithelial cells. We also used an assay format where a fixed concentration of potentiator was added chronically along with the corrector compounds. This chronic treatment with the potentiator helped eliminate any interaction that might happen with CFTR modulators (correctors and potentiators) and thereby determined the true efficacy of the modulator combinations reflective of clinical relevance.
The assay uses a Transepithelial Current Clamp (TECC) (Vu, C B et al., 2017; J Med Chem 60:458-473) instrument that can measure the functionality of the mutated channel by measuring the equivalent CFTR current (IEQ) generated by the polarized primary epithelial cells. We used a TECC-24 with a 24-channel electrode manifold allowing for the simultaneous measurement of the transepithelial voltage, VT, and transepithelial resistance, RT, under current clamp conditions, from 24 filters using a 24 well Costar filter plate. The design of the filters in the 24 well filter plates was exactly the same as the design of an individual Transwell filter used in the classical Ussing Chamber with a surface area of 0.33 cm^2. Each measured VT values were corrected for the electrode offset potential measured using buffer alone in a separate plate, and each measured RT values were then corrected for the combined solution series and empty filter resistances. The corrected VT and RT values were then used to calculate the equivalent current, IEQ using Ohm's law (IEQ=VT/RT). The area under the curve (AUC) for the time period between the forskolin peak IEQ response and at the time of bumetanide addition was also calculated using a one-third trapezoid method, in addition to calculating the IEQ. The assay was run in a 24-well format and all 24-wells were measured at the same time point giving a higher throughput for this assay. […]

[2] = target: T2, F508delCFTR (Homo sapiens, UniProt P13569, DEL508-508); experiment: Cell Surface Expression-Horse Radish Peroxidase (CSE-HRP) assay in CFBE41o-F508delCFTR-HRP cells; type: cell-based; conditions: for EC50: CFBE41o-F508delCFTR-HRP cells, 18-24 hours at 33° C.; for Emax / Maximum % activity (with co-corrector): normalized to on-plate positive control; for Emax: read-out: Maximum % activity (without co-corrector)
T2 construct: expressed in transfected cells; host or cells: CFBE41o- human lung derived epithelial cell line, doxycycline-induced expression
T2 sequence (P13569 with tags, fused parts or gaps DEL508-508): as above
Method: A cellular assay for measuring the F508delCFTR cell surface expression after correction with test compounds either without or with a co-corrector (2 μM of 3-[(2R,4R)-4-({[1-(2,2-difluoro-1,3-benzodioxol-5-yl)cyclopropyl]carbonyl}amino)-7-methoxy-3,4-dihydro-2H-chromen-2-yl]benzoic acid), was developed in human lung derived epithelial cell line (CFBE41o-) (Veit G et al, (2012) Mol Biol Cell. 23(21): 4188-4202). The development was achieved by expressing the F508delCFTR mutation along with a horseradish peroxidase (HRP) in the fourth exofacial loop, and then measuring the HRP activity using luminescence readout from these cells, CFBE41o-F508delCFTR-HIRP, that were incubated overnight with the test corrector compounds, either without or with the co-corrector. For this primary assay, the CFBE41o-F508delCFTR-HRP cells were plated in 384-well plates (Greiner Bio-one; Cat 781080) at 4,000 cells/well along with 0.5 μg/mL doxycycline to induce the F508delCFTR-HRP expression and further incubated at 37° C., […] for 68-72 hours. The test compounds were then added either without or with a co-corrector at the required concentrations and further incubated for 18-24 hours at 33° C. The highest concentration tested was 20 μM or 30 μM (GI-1 to GIII-36) with an 8-point concentration response curve using a 3-fold dilution in both the test compound without or with the co-corrector. Three replicate plates were run to determine one EC50. All plates contained negative controls (dimethyl sulfoxide, DMSO) and positive control (2 μM or 3 μM (GI-1 to GIII-36) of 3-[(2R,4R)-4-({[1-(2,2-difluoro-1,3-benzodioxol-5-yl)cyclopropyl]carbonyl}amino)-7-methoxy-3,4-dihydro-2H-chromen-2-yl]benzoic acid) as well as on-plate concentration response of the positive control. Post incubation, the plates were washed 5× times with Dulbecco's phosphate buffered saline (DPBS), followed by the addition of the HRP substrate, luminol (50 μL), and measuring the HRP activity using luminescence readout on EnVision® Multilabel Plate Reader (Perkin Elmer; product number 2104-0010). The raw counts from the experiment were analyzed using Accelrys® Assay Explorer v3.3.
Z′ greater than 0.5 was used as passing quality control criteria for the plates. The Z′ is defined as:
1−[3*SDPositive Control+3*SDNegative Control/Absolute(MeanPositive Control−MeanNegative Control)]
The % activity measured at each of the 8 test concentrations of the test compound added either without or with a co-corrector (2 μM or 3 μM (GI-1 to GIII-36) of 3-[(2R,4R)-4-({[1-(2,2-difluoro-1,3-benzodioxol-5-yl)cyclopropyl]carbonyl}amino)-7-methoxy-3,4-dihydro-2H-chromen-2-yl]benzoic acid) was normalized to the on-plate positive control using the following formulae:
% activity (Test compound without co-corrector)=[(test compound without co-corrector response−DMSO response)/(positive control response−DMSO response)]*100
% activity (Test compound with co-corrector)=[(test compound with co-corrector response−DMSO response)/(positive control response−DMSO response)]*100
The maximum % activity achieved for the test compound either without or with a co-corrector at any tested concentration is presented in Table 3 along with the respective EC50's calculated using the following general sigmoidal curve with variable Hill slope equation (described as Model 42 in the Accelrys® Assay Explorer v3.3 software):
General sigmoidal curve with concentration, response, top, bottom, EC50 and Hill slope. This model describes a sigmoidal curve with an adjustable baseline, a. The equation can be used to fit curves where response is either increasing or decreasing with respect to the independent variable, “x”.

[3] = with co-corrector 2 μM, read-out: EC50 (with co-corrector)
[4] = without co-corrector, read-out: EC50 (without co-corrector)

COc1ccc(C)cc1[C@@]1(C(=O)NS(=O)(=O)c2cccc3nc(C)ccc23)C[C@@H](c2ccccc2)CO1 [Example 32, (2R,4S)-2-(2-methoxy-5-methylphenyl)-N-(2-methylquinoline-5-sulfonyl)-4-phenyloxolane-2-carboxamide]
Emax (% Dual) [1]: 263 % Dual
EC50 [1]: 20.8 nM

COc1ccc(C)cc1C1(C(=O)NS(=O)(=O)c2cccc3nc(C)ccc23)CCC(c2ccccc2)O1 (stereo in doubt) [Example 7, (2S,5S)-2-(2-methoxy-5-methylphenyl)-N-(2-methylquinoline-5-sulfonyl)-5-phenyloxolane-2-carboxamide]
EC50 [2, 3]: 330 nM
EC50 [2, 4]: 530 nM
Emax ([2]; without co-corrector): 509%
Emax (% Dual) [1]: 283 % Dual
EC50 [1]: 11.7 nM

CCc1ccc(Oc2cccnc2OC(F)F)c([C@]2(C(=O)NS(=O)(=O)c3cccc4nc(C)ccc34)CCCO2)c1 [Example 26, (2S)-2-(2-{[2-(difluoromethoxy)pyridin-3-yl]oxy}-5-ethylphenyl)-N-(2-methylquinoline-5-sulfonyl)oxolane-2-carboxamide]
EC50 [2, 3]: 3270 nM
Maximum % activity (with co-corrector) ([2]; with co-corrector 2 μM): 828%
EC50 [2, 4]: 3970 nM
Emax ([2]; without co-corrector): 282%
Emax (% Dual) [1]: 130 % Dual
EC50 [1]: 171 nM

COc1ccc(C)cc1[C@@]1(C(=O)NS(=O)(=O)c2cccc3nc(C)ccc23)C[C@H](OC)CO1 [Example 28, (2R,4S)-4-methoxy-2-(2-methoxy-5-methylphenyl)-N-(2-methylquinoline-5-sulfonyl)oxolane-2-carboxamide]
EC50 [2, 3]: 3470 nM
Maximum % activity (with co-corrector) ([2]; with co-corrector 2 μM): 513%
EC50 [2, 4]: 4110 nM
Emax ([2]; without co-corrector): 180%
Emax (% Dual) [1]: 182 % Dual
EC50 [1]: 1100 nM

CCc1ccc(Oc2ccccc2)c([C@]2(C(=O)NS(=O)(=O)c3cccc4nc(C)ccc34)CCCO2)c1 [Example 22, (2S)-2-(5-ethyl-2-phenoxyphenyl)-N-(2-methylquinoline-5-sulfonyl)oxolane-2-carboxamide]
EC50 [2, 3]: 1140 nM
Maximum % activity (with co-corrector) ([2]; with co-corrector 2 μM): 673%
EC50 [2, 4]: 1950 nM
Emax ([2]; without co-corrector): 235%
Emax (% Dual) [1]: 200 % Dual
EC50 [1]: 589 nM

COc1ccc(C)cc1[C@@]1(C(=O)NS(=O)(=O)c2cccc3nc(C)ccc23)C[C@@H](OC)CO1 [Example 29, (2R,4R)-4-methoxy-2-(2-methoxy-5-methylphenyl)-N-(2-methylquinoline-5-sulfonyl)oxolane-2-carboxamide]
EC50 [2, 3]: 1210 nM
Maximum % activity (with co-corrector) ([2]; with co-corrector 2 μM): 587%
EC50 [2, 4]: 1860 nM
Emax ([2]; without co-corrector): 213%
Emax (% Dual) [1]: 230 % Dual
EC50 [1]: 164 nM

CCOc1ccc(C)cc1[C@@]1(C(=O)NS(=O)(=O)c2cccc3nc(C)ccc23)CCCO1 (single isomer, unassigned) [Example 2]
EC50 [2, 3]: 780 nM
EC50 [2, 4]: 1540 nM
Emax ([2]; without co-corrector): 602%
Emax (% Dual) [1]: 318 % Dual
EC50 [1]: 82.5 nM

COc1ccc(C)cc1[C@@]1(C(=O)NS(=O)(=O)c2cccc3nc(N)ccc23)CC(C)(C)CO1 [Example 35, (2R)—N-(2-aminoquinoline-5-sulfonyl)-2-(2-methoxy-5-methylphenyl)-4,4-dimethyloxolane-2-carboxamide]
Emax (% Dual) [1]: 248 % Dual
EC50 [1]: 443 nM

COc1ccc(C)cc1[C@]1(C(=O)NS(=O)(=O)c2cccc3nc(N)ccc23)CC(C)(C)CO1 [Example 34, (2S)—N-(2-aminoquinoline-5-sulfonyl)-2-(2-methoxy-5-methylphenyl)-4,4-dimethyloxolane-2-carboxamide]
Emax (% Dual) [1]: 284 % Dual
EC50 [1]: 34.6 nM

COc1ccc(C)cc1[C@@]1(C(=O)NS(=O)(=O)c2cccc3nc(C)ccc23)C[C@H](C)CO1 [Example 20, (2R,4S)-2-(2-methoxy-5-methylphenyl)-4-methyl-N-(2-methylquinoline-5-sulfonyl)oxolane-2-carboxamide]
EC50 [2, 3]: 680 nM
Maximum % activity (with co-corrector) ([2]; with co-corrector 2 μM): 862%
EC50 [2, 4]: 1230 nM
Emax ([2]; without co-corrector): 366%
Emax (% Dual) [1]: 201 % Dual
EC50 [1]: 35.1 nM

COc1cccc([C@H]2CO[C@@](C(=O)NS(=O)(=O)c3cccc4nc(C)ccc34)(c3cc(C)ccc3OC)C2)c1 [Example 43, (2R,4S)-2-(2-methoxy-5-methylphenyl)-4-(3-methoxyphenyl)-N-(2-methylquinoline-5-sulfonyl)oxolane-2-carboxamide]
Emax (% Dual) [1]: 216 % Dual
EC50 [1]: 59.9 nM

CCc1ccc(Oc2cccnc2OC)c(C2(C(=O)NS(=O)(=O)c3cccc4nc(C)ccc34)CCCO2)c1 (centres unmarked) [Example 18, 2-{5-ethyl-2-[(2-methoxypyridin-3-yl)oxy]phenyl}-N-(2-methylquinoline-5-sulfonyl)oxolane-2-carboxamide]
Emax (% Dual) [1]: 152 % Dual
EC50 [1]: > 800 nM

Reference: patent US20220211692A1, “Modulators of the Cystic Fibrosis Transmembrane Conductance Regulator Protein and Methods of Use” (AbbVie Global Enterprises Ltd., priority 2021, published 2022)
